Data published in patent US8980952B2, “Methods for treating brain swelling with a compound that blocks a non-selective cation channel” (University of Maryland, Baltimore, priority 2002, dated 2015).
Values joined by “and” are separate entries in the source; they are usually repeats but may differ in a detail not shown here. Equal values may be shown once. “Also recorded” adds a separate entry of the source. Read-outs that look alike come from different tables or passages of the source.

Legend:
[1] = Rodent model of stroke, glibenclamide vs. saline by subcutaneous mini-pump; assay type: in vivo, rat
[2] = test system: native reactive astrocytes (NRAs); experiment: Necrotic/apoptotic cell death by propidium iodide and annexin V staining; assay type: cell-based, rat
[3] = test system: native reactive astrocytes (NRAs); experiment: Cell blebbing and swelling after ATP depletion (SEM, phase contrast microscopy); assay type: cell-based, rat
[4] = Thromboembolic stroke with tPA reperfusion at 6 hr, hemorrhagic conversion; assay type: in vivo, rat; details: 24 hr after stroke, co-treated with tPA 10 mg/kg i.v. at 6 hr; loading dose 1.5 μg/kg i.v. plus s.c. pump
[5] = Thromboembolic (TE) MCA stroke model; assay type: in vivo, rat; details: for Infarct volume, percent of hemisphere volume: 75 ng/hr
[6] = test system: MMP-9 & MMP-2; experiment: Zymography of gelatinase activity of recombinant enzyme and stroke tissue; assay type: biochemical; details: glibenclamide 10 μM; MMP inhibitor II 300 nM
Description: Activation of MMP-9 & MMP-2 in stroke tissue was compared to controls. […] Calbiochem). Next, the supernatants underwent a gelatinase purification process with gelatin-Sepharose 4B (Pharmacia), and Zymography was performed on the purified supernatants in sodium dodecyl sulfate gels containing gelatin (Rosenberg, 1994). Dried gels were scanned with a transparency scanner, and images were analyzed by densitometry. The relative lysis of an individual sample was expressed as the integrated density value of its band and divided by the protein content of the sample.

[7] = test system: gliotic capsule; details: for GFAP response / gliotic capsule: glibenclamide 1 μM or diazoxide 10 μM at 0.5 μl/hr × 7 days
[8] = test system: native reactive astrocytes (NRAs); assay type: cell-based, rat
[9] = test system: native reactive astrocytes (NRAs); experiment: Current clamp recording of membrane potential, nystatin-perforated patch; assay type: cell-based, rat
[10] = test system: SUR1; experiment: SUR1 knockdown by antisense oligodeoxynucleotide infusion at gelfoam implantation site; assay type: in vivo, rat; details: ODN infused 14 days; vs. scrambled sequence ODN
[11] = glibenclamide 1 μM with Na azide 1 mM

## COc1ccc(Cl)cc1C(=O)NCCc1ccc(S(=O)(=O)NC(=O)NC2CCCCC2)cc1 [glibenclamide]
[1]; rat, in vivo, sc
  3-day mortality after stroke: 28%
[1]; vs. saline-treated rats, n=5 per group
  Excess water in stroke hemisphere: only half as much excess water
[2]; [11]
  annexin V labeling (apoptotic death): not significantly different
  number of PI-positive cells (necrotic death): dramatically decreased; also recorded: largely prevented
[3]; pretreated cells, observed 30 min
  Blebbing on NaN3 in presence of glibenclamide: does not cause blebbing; also recorded: remained phase bright with no pathological deterioration
[4]
  Animals with hemorrhagic conversion: 1 of 6 and ⅕
[5]; 2 days after MCAO
  Infarct volume, percent of hemisphere volume: 16.7±2.2%
[5]; 48 hr after stroke, 10 male rats per group
  Stroke volume, percent of hemisphere volume: 15.5±2.3%
[5]; 7 days after MCAO
  Infarct volume, percent of hemisphere volume: 15.2±1.2%
[5]; begun 2 hr after stroke, loading dose 3.3 μg/kg i.p.
  Stroke volume vs. saline at 48 hr: significant reduction in stroke volume
[5]; begun 4 hours after MCAO, loading dose 3.3 μg/kg i.p.
  Stroke volume vs. saline at 48 hr: not statistically significant
[5]; begun 4 hours after MCAO, loading dose 33.0 μg/kg i.p. with glucose 1 gm/kg
  Stroke volume vs. saline at 48 hr: statistically significant reductions in stroke volume
[5]; begun 6 hours after MCAO, loading dose 33.0 μg/kg i.p. with glucose 1 gm/kg
  Stroke volume vs. saline at 48 hr: statistically significant reductions in stroke volume
[5]; infusion 75 ng/hr begun immediately after stroke, no loading dose
  Stroke volume vs. saline at 48 hr: significant reduction in stroke volume
[6]
  Gelatinase activity: did not directly inhibit gelatinase activity
8 hr after MCAO, supplemental glucose 1 gm/kg i.p. at 4 hr
  Reduction of edema with added glucose: just as effective in reducing edema
8 hr after stroke, saline 3.4%
  Rise of water in involved hemisphere: 2.0%
8 hr after stroke, saline 5.4%
  Rise of water in TTC(+) tissue: 2.5%
8 hr after stroke, saline 78.7±1.0%
  Water in TTC(−) tissue of involved hemisphere: 78.6±0.4%
8 hr after stroke, saline 81.3±0.5%, control hemisphere 77.9±0.2%
  Water content of involved hemisphere: 79.9±0.3%
8 hr after stroke, saline 83.4±1.1%
  Water in TTC(+) tissue of involved hemisphere: 80.5±0.3%
rat, in vivo
  Serum glucose: 93 ± 3 mg/dL
rat, in vivo, sc
  Mortality during 7 days after MCA stroke: 24%
[7]
  GFAP response / gliotic capsule: well defined gliotic capsule
[7]; listed as Glibenclamide
  GFAP response / gliotic capsule: reduced the overall injury response
[7]; infusion into site of gelatin sponge
  Inflammatory response / PMN infiltration: minimized the inflammatory response

## charybdotoxin: toxin partially blocking large conductance Ca2+-activated K+ channel currents
[8]
  Block of large outward currents: partially blocked

## OC[C@@H](O)[C@@H](O)[C@H](O)[C@H](O)CO [mannitol]
[9]; 50 mM mannitol
  Effect on NaN3-induced depolarization: neither the time course nor the magnitude of the depolarization is affected
[3]; 50 mM mannitol, 350 mOsm
  Delay of bleb formation after exposure to NaN3: > 30 min

## CC1=NS(=O)(=O)c2cc(Cl)ccc2N1 [diazoxide]
[2]
  Necrotic death by channel opener: necrotic death can also be induced by diazoxide
[3]; no ATP depletion
  Blebbing with channel opener alone: blebbing occurs even without ATP depletion; also recorded: developed progressive blebbing consistent with cytotoxic edema

## [N-]=[N+]=[N-] [NaN3, Sodium azide]
[9]
  Em after depolarization: −4.3±0.9 mV
[3]
  Time to apparent blebbing after exposure: 10 to 15 min and 7 to 10 min

## CC[N+](CC)(CC)CC.[Cl-] [TEA, tetraethylammonium chloride]
[8]
  Block of large outward currents: partially blocked

## iberiotoxin: toxin partially blocking large conductance Ca2+-activated K+ channel currents (QFTDVDCSVSKECWSVCKDLFGVDRGKCMGKKCRCYQ)
[8]
  Block of large outward currents: partially blocked

## C[C@@H]1O[C@@H](O[C@H]2C[C@@H](O)[C@]3(CO)[C@H]4[C@H](O)C[C@]5(C)[C@@H](C6=CC(=O)OC6)CC[C@]5(O)[C@@H]4CC[C@]3(O)C2)[C@H](O)[C@H](O)[C@H]1O [ouabain]
[9]; 1 mM ouabain
  Depolarization: small reversible depolarization

## SUR1KD: SUR1 antisense oligodeoxynucleotide 5′-GGCCGAGTGGTTCTCGGT-3′ (SEQ ID NO: 9) (DNA, backbone not given here)
[9]
  Depolarization on application of Na azide: 8.7±1.7 mV
[3]; cells from SUR1KD
  Membrane blebbing after Na azide: not observed
[10]
  SUR1 expression in gliotic capsule (immunoblot): significant reduction in SUR1 expression

## Nc1ccncc1 [4-AP, 4-aminopyridine]
[8]
  Outward current remaining in presence of charybdotoxin: further blocked
